According to PMC9040849 (RSC Advances, 2021):

How the values were obtained:
[1] = in vitro; conditions: human
[2] = test system: influenza A/Puerto Rico/8/34 H1N1 (PR8) virus; test: microbe, parasite or virus in culture; type: cell-based; conditions: for IC50: Influenza A virus, H1N1|PR8, A549, 24 h; for SI (selectivity index, ratio of the CC50 to the IC50): A549 cells, PR8

For `COC(=O)Cn1c(C)nc(C#N)c1N` [Compound 4a, Methyl 2-(5-amino-4-cyano-2-methyl-1H-imidazol-1-yl)acetate], the CC50 [1] was 1020 nM.
Work on `COC(=O)C(C)n1c(C)nc(C#N)c1N` (stereo not shown) [Compound 4b, Methyl 2-(5-amino-4-cyano-2-methyl-1H-imidazol-1-yl)propanoate] yielded an IC50 [2] of 760 nM and a CC50 [1] of 2750 nM.
With `COC(=O)C(C(C)C)n1c(C)nc(C#N)c1N` (stereo not shown) [Compound 4c, Methyl 2-(5-amino-4-cyano-2-methyl-1H-imidazol-1-yl)-3-methylbutanoate] the “SI (selectivity index, ratio of the CC50 to the IC50)” value [2] was 0.5, the IC50 [2] was 2410 nM and the CC50 [1] was 1130 nM.
For `COC(=O)C(CO)n1c(C)nc(C#N)c1N` (stereo not shown) [Compound 4d, Methyl 2-(5-amino-4-cyano-2-methyl-1H-imidazol-1-yl)-3-hydroxypropanoate], the IC50 [2] was 680 nM and the CC50 [1] was 1990 nM.
Work on `COC(=O)C(Cc1ccccc1)n1c(C)nc(C#N)c1N` (stereo not shown) [Compound 4e, Methyl 2-(5-amino-4-cyano-2-methyl-1H-imidazol-1-yl)-3-phenylpropanoate] yielded an IC50 [2] of 390 nM and a CC50 [1] of 840 nM.
In the case of `COC(=O)C(Cc1ccc(O)cc1)n1c(C)nc(C#N)c1N` (stereo not shown) [Compound 4f, Methyl 2-(5-amino-4-cyano-2-methyl-1H-imidazol-1-yl)-3-(4-hydroxyphenyl)propanoate], the “SI (selectivity index, ratio of the CC50 to the IC50)” value [2] is reported as 0.5, the IC50 [2] is reported as 3200 nM and the CC50 [1] is reported as 1450 nM.
In the case of `Cc1nc(C#N)c(N)n1CC(=O)O` [Compound 5a, 2-(5-Amino-4-cyano-2-methyl-1H-imidazol-1-yl)acetic acid], the “expression of HA on infected monolayers (RFU % vs untreated infected cells)” value [2] is reported as “decreased”, the IC50 [2] is reported as 760 nM and the CC50 [1] is reported as 2200 nM.
For `Cc1nc(C#N)c(N)n1C(C)C(=O)O` (stereo not shown) [Compound 5b, 2-(5-Amino-4-cyano-2-methyl-1H-imidazol-1-yl)propanoic acid], the “SI (selectivity index, ratio of the CC50 to the IC50)” value [2] was 1, the IC50 [2] was 3000 nM and the CC50 [1] was 2910 nM.
In the case of `Cc1nc(C#N)c(N)n1C(C(=O)O)C(C)C` (stereo not shown) [Compound 5c, 2-(5-Amino-4-cyano-2-methyl-1H-imidazol-1-yl)-3-methylbutanoic acid], the “SI (selectivity index, ratio of the CC50 to the IC50)” value [2] is reported as 0.8, the IC50 [2] is reported as 830 nM and the CC50 [1] is reported as 620 nM.
`Cc1nc(C#N)c(N)n1C(Cc1ccccc1)C(=O)O` (stereo not shown) [Compound 5e, 2-(5-Amino-4-cyano-2-methyl-1H-imidazol-1-yl)-3-phenylpropanoic acid] gave an IC50 [2] of 460 nM and a CC50 [1] of 3360 nM.
With `Cc1nc(C#N)c(N)n1C(Cc1ccc(O)cc1)C(=O)O` (stereo not shown) [Compound 5f, 2-(5-Amino-4-cyano-2-methyl-1H-imidazol-1-yl)-3-(4-hydroxyphenyl)propanoic acid] the “SI (selectivity index, ratio of the CC50 to the IC50)” value [2] was 0.45, the IC50 [2] was 1990 nM and the CC50 [1] was 900 nM.
With `COC(=O)Cn1c(C)nc2c(=O)[nH]cnc21` [Compound 6a, Methyl 2-(8-methyl-6-oxo-1,6-dihydro-9H-purin-9-yl)acetate] the “SI (selectivity index, ratio of the CC50 to the IC50)” value [2] was 0.3, the IC50 [2] was 6960 nM and the CC50 [1] was 2110 nM.
With `COC(=O)C(C)n1c(C)nc2c(=O)[nH]cnc21` (stereo not shown) [Compound 6b, Methyl 2-(8-methyl-6-oxo-1,6-dihydro-9H-purin-9-yl)propanoate] the CC50 [1] was 470 nM.
Work on `COC(=O)C(C(C)C)n1c(C)nc2c(=O)[nH]cnc21` (stereo not shown) [Compound 6c, Methyl 3-methyl-2-(8-methyl-6-oxo-1,6-dihydro-9H-purin-9-yl)butanoate] yielded an IC50 [2] of 180 nM and a CC50 [1] of 310 nM.
With `COC(=O)C(CO)n1c(C)nc2c(=O)[nH]cnc21` (stereo not shown) [Compound 6d, Methyl 3-hydroxy-2-(8-methyl-6-oxo-1,6-dihydro-9H-purin-9-yl)propanoate] the CC50 [1] was 930 nM.
With `COC(=O)C(Cc1ccccc1)n1c(C)nc2c(=O)[nH]cnc21` (stereo not shown) [Compound 6e, Methyl 2-(8-methyl-6-oxo-1,6-dihydro-9H-purin-9-yl)-3-phenylpropanoate] the “SI (selectivity index, ratio of the CC50 to the IC50)” value [2] was 0.3, the IC50 [2] was 1870 nM and the CC50 [1] was 510 nM.
Compound `COC(=O)C(Cc1ccc(O)cc1)n1c(C)nc2c(=O)[nH]cnc21` (stereo not shown) [Compound 6f, Methyl 3-(4-hydroxyphenyl)-2-(8-methyl-6-oxo-1,6-dihydro-9H-purin-9-yl)propanoate] has an IC50 [2] of 480 nM and a CC50 [1] of 800 nM.
For `Cc1nc2c(=O)[nH]cnc2n1CC(=O)O` [Compound 7a, 2-(8-Methyl-6-oxo-1,6-dihydro-9H-purin-9-yl)acetic acid], the “SI (selectivity index, ratio of the CC50 to the IC50)” value [2] was 0.84, the IC50 [2] was 890 nM and the CC50 [1] was 750 nM.
In the case of `Cc1nc2c(=O)[nH]cnc2n1C(C)C(=O)O` (stereo not shown) [Compound 7b, 2-(8-Methyl-6-oxo-1,6-dihydro-9H-purin-9-yl)propanoic acid], the IC50 [2] is reported as 1850 nM and the CC50 [1] is reported as 2860 nM.
For `Cc1nc2c(=O)[nH]cnc2n1C(C(=O)O)C(C)C` (stereo not shown) [Compound 7c, 3-Methyl-2-(8-methyl-6-oxo-1,6-dihydro-9H-purin-9-yl)butanoic acid], the “expression of HA on infected monolayers (RFU % vs untreated infected cells)” value [2] was “decreased”, the IC50 [2] was 590 nM and the CC50 [1] was 1090 nM.
Work on `Cc1nc2c(=O)[nH]cnc2n1C(CO)C(=O)O` (stereo not shown) [Compound 7d, 3-Hydroxy-2-(8-methyl-6-oxo-1,6-dihydro-9H-purin-9-yl)propanoic acid] yielded a CC50 [1] of 6110 nM.
`Cc1nc2c(=O)[nH]cnc2n1C(Cc1ccccc1)C(=O)O` (stereo not shown) [Compound 7e, 2-(8-Methyl-6-oxo-1,6-dihydro-9H-purin-9-yl)-3-phenylpropanoic acid] showed a CC50 [1] of 6350 nM.
